According to patent US6673549B1, “Genes expressed in C3A liver cell cultures treated with steroids” (Incyte Corporation, priority 2000, dated 2004):

Tested on: human C3A liver cells
Test: Microarray differential gene expression in human C3A liver cell cultures treated with steroids
Assay type: cell-based
From the text: Incyte clones represent template sequences derived from the LWESEQ GOLD assembled human sequence database (Incyte Genomics). In cases where more than one clone was available for a particular template, the 5′-most clone in the template was used on the microarray. The HUMAN GENOME GEM series 1-4 microarrays (Incyte Genomics) contain 28,626 array elements which represent 10,068 annotated clusters and 18,558 unannotated clusters. For the UNIGEM series microarrays (Incyte Genomics), Incyte clones were mapped to non-redundant Unigene clusters (Unigene database (build 46), NCBI; Shuler (1997) J Mol Med 75:694-698), and the 5′ clone with the strongest BLAST alignment (at least 90% identity and 100 bp overlap) was chosen, verified, and used in the construction of the microarray. The UNIGEM V microarray (Incyte Genomics) contains 7075 array elements which represent 4610 annotated genes and 2,184 unannotated clusters.
To construct microarrays, cDNAs were amplified from bacterial cells using primers complementary to vector sequences flanking the cDNA insert. […] Amplified cDNAs were then purified using […]-400 columns (APB). Purified cDNAs were immobilized on polymer-coated glass slides. Glass microscope slides (Corning, Corning N.Y.) were cleaned by ultrasound in 0.1% SDS and acetone, with extensive distilled water washes between and after treatments. Glass slides were etched in 4% hydrofluoric acid (VWR Scientific Products, West Chester Pa.), washed thoroughly in distilled water, and coated with 0.05% aminopropyl silane (Sigma Aldrich) in 95% ethanol. Coated slides were cured in a 110° C. oven. cDNAs were applied to the coated glass substrate using a procedure described in U.S. Pat. No. 5,807,522. One microliter of the cDNA at an average concentration of 100 ng/μl was loaded into the open capillary printing element by a high-speed robotic apparatus which then deposited about 5 nl of cDNA per slide.
Microarrays were UV-crosslinked using a […] UV-crosslinker (Stratagene), and then washed at room temperature once in 0.2% SDS and three times in distilled water. Non-specific binding sites were blocked by incubation of microarrays in 0.2% casein in phosphate buffered saline (Tropix, Bedford Mich.) for 30 minutes at 60° C. followed by washes in 0.2% SDS and distilled water as before.
In all cases, mRNA from untreated early confluent C3A cells were prepared in parallel as described below.
Cells were harvested and lysed in 1 ml of TRIZOL reagent (5×10^6 cells/ml; Life Technologies). Lysates were vortexed thoroughly, incubated at room temperature for 2-3 minutes, and extracted with 0.5 ml chloroform. The extract was mixed, incubated at room temperature for 5 minutes, and centrifuged at 15,000 rpm for 15 minutes at 4° C. The aqueous layer was collected, and an equal volume of isopropanol was added. Samples were mixed, incubated at room temperature for 10 minutes, and centrifuged at 15,000 rpm for 20 minutes at 4° C. The supernatant was removed, and the RNA pellet was washed with 1 ml of 70% ethanol, centrifuged at 15,000 rpm at 4° C., and resuspended in RNAse-free water. The concentration of the RNA was determined by measuring the optical density at 260 nm.
Poly(A) RNA was prepared using an OLIGOTEX mRNA kit (Qiagen) with the following modifications: OLIGOTEX beads were washed in tubes instead of on spin columns, resuspended in elution buffer, and then loaded onto spin columns to recover mRNA. To obtain maximum yield, the mRNA was eluted twice.
Each poly(A) RNA sample was reverse transcribed using MMLV reverse-transcriptase, 0.05 pg/μl oligo-d(T) primer (21mer), 1× first strand buffer, 0.03 units/ul RNAse inhibitor, 500 uM dATP, 500 uM dGTP, 500 uM dTTP, 40 uM dCTP, and 40 uM either dCTP-Cy3 or dCTP-Cy5 (APB).

SMILES | Ave DE [log2] (C3A treated with steroid) (Clone ID 1500810) | Ave DE [log2] (C3A treated with steroid) (Clone ID 2607834) | Ave DE [log2] (C3A treated with steroid) (Clone ID 5038177) | Ave DE [log2] (C3A treated with steroid) (Clone ID 2947188)
C#C[C@]1(O)CC[C@H]2[C@@H]3CCC4=Cc5oncc5C[C@]4(C)[C@H]3CC[C@@]21C [danazol] | −0.41 log2 | 0.92 log2 | 0.74 log2 | –
C[C@@H]1C[C@H]2[C@@H]3CCC4=CC(=O)C=C[C@]4(C)[C@@]3(F)[C@@H](O)C[C@]2(C)[C@@]1(O)C(=O)CO [dexomethasone] | – | – | – | −0.98 log2
